# Legend:
# [1] = test system: C57BL/6J mice; assay: 55°C warm-water tail-withdrawal assay after oral; assay type: in vivo, mouse; settings: morphine 5 mg/kg, p.o.
# [2] = test system: C57BL/6J mice; assay: Respiration rate, Oxymax/CLAMS assay; settings: morphine 30 mg/kg, i.p., positive control
# [3] = test system: C57BL/6J mice; assay: 55°C warm-water tail-withdrawal assay after i.c.v. administration; assay type: in vivo, mouse; settings: 1 nmol i.c.v., summed over 90 min
structure (smiles),measurement,setting,value
CN1CC[C@]23c4c5ccc(O)c4O[C@H]2[C@@H](O)C=C[C@H]3[C@H]1C5 [Morphine],Antinociception after oral administration versus vehicle,[1],significantly higher antinociceptive effects compared to vehicle treated animals
same,Respiratory effect versus vehicle,[2],suppressed respiration up to an hour
same,Screening: summed tail-withdrawal latency versus vehicle,[3],withdrawal latencies equivalent to vehicle treated animals

# Reference: publication PMC6637423 (Organic & biomolecular chemistry, 2019)
